# Assay results published in the supplement of paper PMC4862054.
# Assays:
# DU-4475 [1] = experiment: normalised viability (% of control), CellTiter-Blue; higher = more viable cells (about 100 = DMSO control); conditions: 10 nM; incubation time: 72 h
# Protocol: (§1)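 DSRT, CellTiter-Blue viability, 72 h incubation. Signal is normalised to DMSO and benzethonium chloride controls. Value is the normalised response at dose 3.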
# BT-474 [2] = experiment: as above; conditions: 100 nM; incubation time: 72 h
# Protocol: as §1
# HCC1937 [3] = experiment: as above; conditions: 100 nM; incubation time: 72 h
# Protocol: as §1
# CAL-85-1 = experiment: as above; conditions: 10 nM; incubation time: 72 h
# Protocol: as §1
# MDA-MB-453 [4] = experiment: as above; conditions: 10 nM; incubation time: 72 h
# Protocol: as §1
# CAL-51 = experiment: as above; conditions: 10 nM; incubation time: 72 h
# Protocol: as §1
# MDA-MB-468 = experiment: as above; conditions: 100 nM; incubation time: 72 h
# Protocol: as §1
# MDA-MB-231 [5] = experiment: as above; conditions: 100 nM; incubation time: 72 h
# Protocol: as §1
# HCC1143 = experiment: as above; conditions: 100 nM; incubation time: 72 h
# Protocol: as §1
# HCC1599 [6] = experiment: as above; conditions: 100 nM; incubation time: 72 h
# Protocol: as §1
# CAL-148 = experiment: as above; conditions: 10 nM; incubation time: 72 h
# Protocol: as §1
# CAL-120 = experiment: as above; conditions: 100 nM; incubation time: 72 h
# Protocol: as §1
# HDQ-P1 = experiment: as above; conditions: 10 nM; incubation time: 72 h
# Protocol: as §1
# DU-4475 [7] = experiment: drug sensitivity score (DSS), CellTiter-Blue viability (DSS (AUC-based score)); higher = stronger viability inhibition; extreme values may be limits of the assay; conditions: incubation time: 72 h
# Protocol: (§2)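 DSRT with the CellTiter-Blue (resazurin reduction) viability readout, fluorescence 560/590 nm, 72 h incubation. Plates were normalised to DMSO and benzethonium chloride controls. DSS is computed from the area under the fitted dose-response curve (5 or 9 concentrations).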
# BT-474 [8] = experiment: as above; conditions: incubation time: 72 h
# Protocol: as §2
# HCC1937 [9] = experiment: as above; conditions: incubation time: 72 h
# Protocol: as §2
# MDA-MB-453 [10] = experiment: as above; conditions: incubation time: 72 h
# Protocol: as §2
# MFM-223 = experiment: as above; conditions: incubation time: 72 h
# Protocol: as §2
# MDA-MB-231 [11] = experiment: as above; conditions: incubation time: 72 h
# Protocol: as §2
# BT-549 = experiment: as above; conditions: incubation time: 72 h
# Protocol: as §2
# MDA-MB-436 = experiment: as above; conditions: incubation time: 72 h
# Protocol: as §2
# HCC1599 [12] = experiment: as above; conditions: incubation time: 72 h
# Protocol: as §2
# Hs578T = experiment: as above; conditions: incubation time: 72 h
# Protocol: as §2
SMILES,normalised viability (DU-4475 [1]),normalised viability (BT-474 [2]),normalised viability (HCC1937 [3]),normalised viability (CAL-85-1),normalised viability (MDA-MB-453 [4]),normalised viability (CAL-51),normalised viability (MDA-MB-468),normalised viability (MDA-MB-231 [5]),normalised viability (HCC1143),normalised viability (HCC1599 [6]),normalised viability (CAL-148),normalised viability (CAL-120),normalised viability (HDQ-P1),drug sensitivity score (DU-4475 [7]),drug sensitivity score (BT-474 [8]),drug sensitivity score (HCC1937 [9]),drug sensitivity score (MDA-MB-453 [10]),drug sensitivity score (MFM-223),drug sensitivity score (MDA-MB-231 [11]),drug sensitivity score (BT-549),drug sensitivity score (MDA-MB-436),drug sensitivity score (HCC1599 [12]),drug sensitivity score (Hs578T)
CN1CCC(COc2cnc(-c3cccc(Cn4nc(-c5cccc(C#N)c5)ccc4=O)c3)nc2)CC1,98.3%,102%,94%,94.4%,89.3%,92.9%,95%,83.4%,109%,116%,79.1%,108%,86.3%,2.66,3.92,4.45,4.88,2.41,5.87,6.21,5.04,0,0
CN(C)C/C=C/C(=O)Nc1cc2c(Nc3ccc(F)c(Cl)c3)ncnc2cc1O[C@H]1CCOC1 [Afatinib],95.1%,34.8%,93.4%,84.7%,81.4%,107%,60.9%,90.3%,71%,84.6%,79.9%,71.8%,94.3%,0,23.5,7.41,21.3,3.47,7.75,5.88,3.02,0,4.14
